# Legend:
# Type in all cases: physicochemical
# [1] = Light resistance test of dye films; conditions: absorbance at maximum absorption wavelength, 48 h light resistance test
# Protocol: The above-described thin films 1 to 4 were each stored for 24 hours under the conditions of 23° C. and 50% RH. Thereafter, these thin films were each subjected to a light resistance test using a merry-go-round type apparatus for testing of light resistance (Cell Testing Apparatus III, trade name, manufactured by Eagle Engineering Co., Ltd., with a filter WG 320, trade name, manufactured by Schott AG). Absorption spectra of the dye films just before the light resistance test and the dye films after the light resistance test for 48 hours were measured using UV-1600 PC (trade name, manufactured by Shimadzu Corporation). A change of absorbance at the maximum absorption wavelength was read from each absorption spectrum.
# [2] = Solubility in a solvent (chloroform or water); conditions: for solubility in water after heating: after heated at 250° C.
# Protocol: In the first embodiment of the present invention, the term “solvent-soluble (being soluble in a solvent)” means to show a solubility of 0.1% by mass or more, more preferably 0.5% by mass or more, and further preferably 1% by mass or more, with respect to a solvent in interest when the solvent to which a compound in interest is added is heated under reflux and then cooled down to room temperature. Further, the term “solvent-insolubilization (to make a compound insoluble in a solvent)” means to reduce the solubility by one digit figure or more than the solvent-soluble state. Specifically, with respect to a solvent, when the solvent is heated under reflux and then cooled down to room temperature, it is preferable to reduce from the solubility of 0.1% by mass or more (solvent-soluble) to the solubility of 0.01% by mass or less, further preferably from the solubility of 0.5% by mass or more (solvent-soluble) to the solubility of 0.05% by mass or less, and especially preferably from the solubility of 1% by mass or more (solvent-soluble) to the solubility of less than 0.1% by mass. Further, the term “solvent-insoluble (being insoluble in a solvent)” means to show solubility of less than 0.1% by mass, preferably 0.05% by mass or less, and further preferably 0.01% by mass or less, with respect to a solvent in interest when the solvent to which a compound in interest is added is heated under reflux and then cooled down to room temperature.
# There is no particular restriction in the kind of solvent when degrees of the above-described “solvent-soluble” and “solvent-insoluble” are defined. Accordingly, both “solvent-soluble” and “solvent-insoluble” may be defined in terms of solvent and temperature each of which is actually used. Alternatively, for example, these properties may be specified as solubility (25° C.) with respect to water (distilled water). However, the solvent used in the first embodiment of the present invention is not limited by the above.
# [3] = TG/DTA thermal analysis (rate of decrease in mass on heating)
# Protocol: The thermal analysis (TG/DTA measurement) of the thus-produced Exemplified compound (1) was conducted. The TG/DTA measurement was conducted at the rate of temperature increase of 10° C./min in a range of 30° C. to 550° C. under a current of nitrogen gas (flow rate: 200 ml/min) using EXSTAR 6000 (trade name, manufactured by Seiko Instruments Inc.), to determine a rate of decrease in mass. FIG. 1 is a graph showing TG/DTA measurement results of the Exemplified compound (1). Herein, in each of Examples and Comparative Examples described below, the measurement of TG was conducted using the same apparatus and under the same conditions as described above.
# In FIG. 1, the uppermost curve indicates the change of mass with respect to temperature (TG.). The bottom curve indicates the heat going in and out with respect to temperature (enthalpy change) (DTA). The middle curve indicates the amount of change of TG (differential value) per time (DTG).
Compound,solubility in water [2],solubility in a solvent such as chloroform [2],also measured
CC(C)(C)OC(=O)N1C(=O)C2=C(c3ccccc3)N(C(=O)OC(C)(C)C)C(=O)C2=C1c1ccccc1 [Compound 1 for comparison],,,Residual rate after 48 hours ([1]; dye film after heating): 91%; Residual rate after 48 hours ([1]; dye film before heating): 1.9%
[Cu+2].c1ccc2c(c1)-c1nc-2nc2[n-]c(nc3nc(nc4[n-]c(n1)c1ccccc41)-c1ccccc1-3)c1ccccc21 [cupper phthalocyanine],,so low that a film was not formed,
metal-free phthalocyanine-tetrasulfonic acid [Exemplified compound (54)],soluble,,solubility in water after heating [2]: soluble
[Zn+2].c1ccc2c(c1)-c1nc-2nc2[n-]c(nc3nc([n-]c4nc(n1)-c1ccccc1-4)-c1ccccc1-3)c1ccccc21 [zinc phthalocyanine],so low that a film was not formed,so low that a film was not formed,

# Continued, in another order:
solubility in water [2],solubility in a solvent such as chloroform [2],Compound,also measured
soluble,,copper phthalocyanine-tetrasulfonic acid tetrasodium salt,"temperature of desubstitution of the substituent ([3]; from TG and MS of heated residue): higher than 400 °C; reduction in weight in TG on heating ([3]; heated up to 400° C., after initial loss of solvent or water): did not cause any reduction in weight"
soluble,,zinc phthalocyanine-tetrasulfonic acid [Exemplified compound (53)],solubility in water after heating [2]: soluble
so low that a film was not formed,so low that a film was not formed,c1ccc2c(c1)-c1nc-2nc2[nH]c(nc3nc(nc4[nH]c(n1)c1ccccc41)-c1ccccc1-3)c1ccccc21 [metal-free phthalocyanine],

# Source: patent US20100193777A1, “METHOD OF PRODUCING A DESUBSTITUTED COMPOUND, ORGANIC SEMICONDUCTOR FILM AND METHOD OF PRODUCING THE SAME” (FUJIFILM Corporation, priority 2007, published 2010)
